One block for each compound: values may come before it. No end group written: not given here.
Key:
[1] = stability of hpGRF control solution by HPLC; format: physicochemical; conditions: 0.5 mg hpGRF/ml in 0.01M HCl, stored at 22° C., over six hours
Protocol: One mg of hpGRF, obtained from Peninsula Laboratories, was solubilized in one ml of 0.01M hydrochloric acid ([…]). The solution was divided into four equal aliquots, and each was diluted to a concentration of 0.5 mg hpGRF/ml by the addition of 250 μl of 0.01M HCl. The first aliquot was removed and stored at 22° C. for the duration of the experimentation, to serve as a control. Analysis of the control and the extent of each respective chemical modification with hydrogen peroxide, cyanogen bromide, and methyl iodide, described hereinbelow, was performed by high performance liquid chromatography (HPLC). Quantitation was achieved by peak height measurement at 214 nm, of a symmetrical peak eluting at 10 minutes from a (0.46×25 cm) Zorbax C8, 150 Angstrom reverse phase column, at 45° C. in 0.1M ammonium phosphate buffer, pH 7.2/27.5% 1-propanol, v/v. […] Each modification reaction was quenched by a 5:1 dilution (hpGRF final concentration of 0.1 mg/ml) with addition of two ml of 0.1M methionine/0.01M HCl, pH 3.5. Samples were divided and stored at -20° C. and 4° C. prior to analysis of biological activity.

[2] = peptide obtained by selective S-methylation of glucagon; cited from earlier work
[3] = test system: pituitary release of growth hormone; conditions: in vitro, cited from earlier work

change in HPLC peak elution time or height [1]: no change in peak elution time or height
Compound: CC[C@H](C)[C@H](NC(=O)[C@H](C)NC(=O)[C@H](CC(=O)O)NC(=O)[C@H](C)NC(=O)[C@@H](N)Cc1ccc(O)cc1)C(=O)N[C@@H](Cc1ccccc1)C(=O)N[C@H](C(=O)N[C@@H](CC(N)=O)C(=O)N[C@@H](CO)C(=O)N[C@@H](Cc1ccc(O)cc1)C(=O)N[C@@H](CCCNC(=N)N)C(=O)N[C@@H](CCCCN)C(=O)N[C@H](C(=O)N[C@@H](CC(C)C)C(=O)NCC(=O)N[C@@H](CCC(N)=O)C(=O)N[C@@H](CC(C)C)C(=O)N[C@@H](CO)C(=O)N[C@@H](C)C(=O)N[C@@H](CCCNC(=N)N)C(=O)N[C@@H](CCCCN)C(=O)N[C@@H](CC(C)C)C(=O)N[C@@H](CC(C)C)C(=O)N[C@@H](CCC(N)=O)C(=O)N[C@@H](CC(=O)O)C(=O)N[C@H](C(=O)N[C@@H](CCSC)C(=O)N[C@@H](CO)C(=O)N[C@@H](CCCNC(=N)N)C(=O)N[C@@H](CCC(N)=O)C(=O)N[C@@H](CCC(N)=O)C(=O)NCC(=O)N[C@@H](CCC(=O)O)C(=O)N[C@@H](CO)C(=O)N[C@@H](CC(N)=O)C(=O)N[C@@H](CCC(N)=O)C(=O)N[C@@H](CCC(=O)O)C(=O)N[C@@H](CCCNC(=N)N)C(=O)NCC(=O)N[C@@H](C)C(=O)N[C@@H](CCCNC(=N)N)C(=O)N[C@@H](C)C(=O)N[C@@H](CCCNC(=N)N)C(=O)N[C@@H](CC(C)C)C(N)=O)[C@@H](C)CC)C(C)C)[C@@H](C)O [hpGRF]

Compound: glucagon
activity as % of the inherent activity of the native hormone [2]: less than 1%

Compound: hpGRF(1-27)-NH2: shortened GRF analog prepared and tested by Rivier et al. (YADAIFTNSYRKVLGQLSARKLLQDIM-NH2; UniProt P01286 32-58, looked up, fragment)
intrinsic activity [3]: full intrinsic activity | potency as % of the potency of hpGRF(1-40)-OH ([3]; relative to hpGRF(1-40)-OH): 10-20%

Source: patent US4617149A, “Growth hormone release factor analogs” (Eli Lilly and Company, priority 1983, dated 1986)
